Data reported in patent US11344499B2, “Nanoparticles as delivery vehicles of active ingredients and methods for the production thereof” (CONSIGLIO NAZIONALE DELLE RICERCHE, priority 2017, dated 2022).

Tests used:
[1] = system: HT29 cells; assay: Count of alive cells after treatment; assay type: cell-based, human; settings: HT29, 50 μM of 9-HSA, 24 h
Description: Briefly 5.0×10^3 human colon adenocarcinoma cell line HT29 cells were seeded in 200 μl of growth medium in replicate (n=4) in a 48-well culture plate. After 24 h of cell growth, the medium was removed and the cells were incubated with the experimental medium containing KNPs-9HSA (50 μM of 9-HSA) and free 9-HSA. Twenty-four hours after treatment, cells were detached and counted.

[2] = system: HT29 cells; assay: Cell cycle analysis by flow cytometry (PI); assay type: cell-based, human; settings: HT29, 50 μM of 9-HSA, 24 h
Description: Cell cycle analysis was performed as follows: 5.0×10^3 HT29 cells were seeded in 200 μl of growth medium in a 48-well culture plate. After 24 h of cell growth, the medium was removed and the cells were incubated with the experimental medium containing KER-NPs-9HSA (50 μM of 9-HSA) and free 9-HSA. Twenty-four hours after treatment, cells were trypsinized, washed twice with PBS and then centrifuged. Cells pellet was re-suspended in 0.01% Nonidet-P40 (Sigma-Aldrich), 10 μg/mL of RNasi (Sigma-Aldrich), 0.1% of sodium citrate (Sigma-Aldrich), 50 μg/mL di propidium iodide (PI) (Sigma-Aldrich), and kept in the dark for 30 min at room temperature. Florescence was detected by a flow cytometry (Beckman Coulter Epics XL-MCL), while cell cycle analysis was performed with Cell Cycle program (MODEFIT 5.0).

CCCCCCCCCC(O)CCCCCCCC(=O)O (centres unmarked) [Entry 9-HSA, 9-hydroxystearic acid] was tested, and the “tumor cell proliferation (number of alive cells)” value [1] was “inhibit tumor cell proliferation” and the cell cycle effect [2] was “blocks the cell cycle in the G0/G1 phase”.
